Experimental data published in US6054435A, “6-O-substituted macrolides having antibacterial activity” (priority 1999, dated 2000).
Values after ≈ are worked out from the molar mass of the structure shown.

Assays:
Experiment in all cases: in vitro antibacterial activity (MIC), agar dilution
Type in all cases: cell-based
[1] = test system: Micrococcus luteus ATCC 9341; details: organism code OO; BHI agar, 35-37° C., 20 to 24 hours; unit assumed
Description: (§1) Representative compounds of the present invention were assayed in vitro for antibacterial activity as follows: Twelve petri dishes containing successive aqueous dilutions of the test compound mixed with 10 mL of sterilized Brain Heart Infusion (BHI) agar (Difco 0418-01-5) were prepared. Each plate was inoculated with 1:100 (or 1:10 for slow-growing strains, such as Micrococcus and Streptococcus) dilutions of up to 32 different microorganisms, using a Steers replicator block. […] In addition, a control plate, using BHI agar containing no test compound, was prepared and incubated at the beginning and end of each test.
(§2) An additional plate containing a compound having known susceptibility patterns for the organisms being tested and belonging to the same antibiotic class as the test compound was also prepared and incubated as a further control, as well as to provide test-to-test comparability.
(§3) After incubation, each plate was visually inspected. The minimum inhibitory concentration (MIC) was defined as the lowest concentration of drug yielding no growth, a slight haze, or sparsely isolated colonies on the inoculum spot as compared to the growth control.

[2] = test system: Staphylococcus aureus ATCC 6538P; details: organism code AA; BHI agar, 35-37° C., 20 to 24 hours; unit assumed
Description: as §1, §2, §3

[3] = test system: Mycobacterium smegmatis ATCC 114; details: organism code UU; BHI agar, 35-37° C., 20 to 24 hours; unit assumed
Description: as §1, §2, §3

[4] = test system: Nocardia Asteroides ATCC9970; details: organism code VV; BHI agar, 35-37° C., 20 to 24 hours; unit assumed
Description: as §1, §2, §3

[5] = test system: Micrococcus luteus ATCC 4698; details: organism code PP; BHI agar, 35-37° C., 20 to 24 hours; unit assumed
Description: as §1, §2, §3

[6] = test system: Staphylococcus aureus A5177; details: organism code BB; BHI agar, 35-37° C., 20 to 24 hours; unit assumed
Description: as §1, §2, §3

[7] = test system: Streptococcus pyogenes PIU 2548; details: organism code NN; BHI agar, 35-37° C., 20 to 24 hours; unit assumed
Description: as §1, §2, §3

[8] = test system: Streptococcus Pneumonia 5979; details: organism code ZZ; BHI agar, 35-37° C., 20 to 24 hours; unit assumed
Description: as §1, §2, §3

[9] = test system: Staphylococcus aureus 1775; details: organism code GG; BHI agar, 35-37° C., 20 to 24 hours; unit assumed
Description: as §1, §2, §3

[10] = test system: Streptococcus bovis A-5169; details: organism code JJ; BHI agar, 35-37° C., 20 to 24 hours; unit assumed
Description: as §1, §2, §3

[11] = test system: Streptococcus agalactiae CMX 508; details: organism code KK; BHI agar, 35-37° C., 20 to 24 hours; unit assumed
Description: as §1, §2, §3

[12] = test system: Streptococcus Pneumonia GYR 1171; details: organism code YY; BHI agar, 35-37° C., 20 to 24 hours; unit assumed
Description: as §1, §2, §3

Escherichia coli DC-2 = details: organism code SS; BHI agar, 35-37° C., 20 to 24 hours; unit assumed
Description: as §1, §2, §3

[13] = test system: Enterococcus faecium ATCC 8043; details: organism code II; BHI agar, 35-37° C., 20 to 24 hours; unit assumed
Description: as §1, §2, §3

Escherichia coli SS = details: organism code RR; BHI agar, 35-37° C., 20 to 24 hours; unit assumed
Description: as §1, §2, §3

Escherichia coli JUHL = details: organism code QQ; BHI agar, 35-37° C., 20 to 24 hours; unit assumed
Description: as §1, §2, §3

[14] = test system: Streptococcus Pneumonia ATCC6303; details: organism code XX; BHI agar, 35-37° C., 20 to 24 hours; unit assumed
Description: as §1, §2, §3

[15] = test system: Staphylococcus aureus CMX 553; details: organism code FF; BHI agar, 35-37° C., 20 to 24 hours; unit assumed
Description: as §1, §2, §3

Candida albicans CCH 442 = details: organism code TT; BHI agar, 35-37° C., 20 to 24 hours; unit assumed
Description: as §1, §2, §3

[16] = test system: Staphylococcus epidermidis 3519; details: organism code HH; BHI agar, 35-37° C., 20 to 24 hours; unit assumed
Description: as §1, §2, §3

[17] = test system: Haemophilis Influenzae DILL AMP R; details: organism code WW; BHI agar, 35-37° C., 20 to 24 hours; unit assumed
Description: as §1, §2, §3

[18] = test system: Streptococcus pyogenes EES61; details: organism code LL; BHI agar, 35-37° C., 20 to 24 hours; unit assumed
Description: as §1, §2, §3

[19] = test system: Staphylococcus aureus NCTC10649M; details: organism code EE; BHI agar, 35-37° C., 20 to 24 hours; unit assumed
Description: as §1, §2, §3

[20] = test system: Staphylococcus aureus A-5278; details: organism code CC; BHI agar, 35-37° C., 20 to 24 hours; unit assumed
Description: as §1, §2, §3

[21] = test system: Staphylococcus aureus CMX 642A; details: organism code DD; BHI agar, 35-37° C., 20 to 24 hours; unit assumed
Description: as §1, §2, §3

[22] = test system: Streptococcus pyogenes 930; details: organism code MM; BHI agar, 35-37° C., 20 to 24 hours; unit assumed
Description: as §1, §2, §3

[23] = test system: Streptococcus Pneumonia 5649; details: organism code ZZA; BHI agar, 35-37° C., 20 to 24 hours; unit assumed
Description: as §1, §2, §3

SMILES | MIC [1] [µg/mL] | MIC [2] [µg/mL] | MIC [3] [µg/mL] | MIC [4] [µg/mL] | MIC [5] [µg/mL] | MIC [6] [µg/mL] | MIC [7] [µg/mL] | MIC [8] [µg/mL] | MIC [9] [µg/mL] | MIC [10] [µg/mL] | MIC [11] [µg/mL] | MIC [12] [ng/mL] | MIC (Escherichia coli DC-2) [µg/mL] | MIC [13] [µg/mL] | MIC (Escherichia coli SS) [µg/mL] | MIC (Escherichia coli JUHL) [µg/mL] | MIC [14] [ng/mL] | MIC [15] [µg/mL] | MIC (Candida albicans CCH 442) [µg/mL] | MIC [16] [µg/mL] | other results
CC[C@H]1OC(=O)[C@H](C)C(=O)[C@H](C)[C@@H](O[C@@H]2O[C@H](C)C[C@H](N(C)C)[C@H]2O)[C@](C)(OC/C=C/c2cncc(-c3ccccn3)c2)C[C@@H](C)C(=O)[C@H](C)[C@H]2NC(=O)O[C@@]21C [Example 43] | 0.02 (≈ 0.0252 µM) | 0.05 (≈ 0.0631 µM) | 0.78 (≈ 0.984 µM) | 0.05 (≈ 0.0631 µM) | 0.2 (≈ 0.252 µM) | 0.05 (≈ 0.0631 µM) | 0.2 (≈ 0.252 µM) | 64 (≈ 80.7 µM) | > 100 | 0.02 (≈ 0.0252 µM) | 0.05 (≈ 0.0631 µM) | ≤ 4 | 25 (≈ 31.5 µM) | 0.05 (≈ 0.0631 µM) | 0.39 (≈ 0.492 µM) | 50 (≈ 63.1 µM) | ≤ 4 | 0.05 (≈ 0.0631 µM) | > 100 | 0.1 (≈ 0.126 µM) | MIC [17]: 2 µg/mL (≈ 2.52 µM); MIC [18]: 0.02 µg/mL (≈ 0.0252 µM); MIC [19]: 0.2 µg/mL (≈ 0.252 µM); MIC [20]: > 100 µg/mL; MIC [21]: 0.1 µg/mL (≈ 0.126 µM); MIC [22]: 25 µg/mL (≈ 31.5 µM)
CC[C@H]1OC(=O)[C@H](C)C(=O)[C@H](C)[C@@H](O[C@@H]2O[C@H](C)C[C@H](N(C)C)[C@H]2O)[C@](C)(OC/C=C/c2cncc(-c3cncnc3)c2)C[C@@H](C)C(=O)[C@H](C)[C@H]2NC(=O)O[C@@]21C [Example 45] | 0.01 (≈ 0.0126 µM) | 0.05 (≈ 0.063 µM) | 1.56 (≈ 1.96 µM) | 0.05 (≈ 0.063 µM) | 0.1 (≈ 0.126 µM) | 0.05 (≈ 0.063 µM) | 0.39 (≈ 0.491 µM) | > 128 | > 100 | ≤ 0.005 | ≤ 0.005 | ≤ 4 | 25 (≈ 31.5 µM) | 0.05 (≈ 0.063 µM) | 0.39 (≈ 0.491 µM) | 50 (≈ 63 µM) | 8 (≈ 0.0101 µM) | 0.05 (≈ 0.063 µM) | > 100 | 0.1 (≈ 0.126 µM) | MIC [17]: 2 µg/mL (≈ 2.52 µM); MIC [18]: ≤ 0.005 µg/mL; MIC [19]: 0.2 µg/mL (≈ 0.252 µM); MIC [20]: > 100 µg/mL; MIC [21]: 0.1 µg/mL (≈ 0.126 µM); MIC [22]: 25 µg/mL (≈ 31.5 µM)
CC[C@H]1OC(=O)[C@H](C)C(=O)[C@H](C)[C@@H](O[C@@H]2O[C@H](C)C[C@H](N(C)C)[C@H]2O)[C@](C)(OC/C=C/c2cncc(-c3ccsc3)c2)C[C@@H](C)C(=O)[C@H](C)[C@H]2NC(=O)O[C@@]21C [Example 49] | 0.02 (≈ 0.0251 µM) | 0.1 (≈ 0.125 µM) | 0.39 (≈ 0.489 µM) | 0.05 (≈ 0.0627 µM) | 0.05 (≈ 0.0627 µM) | 0.05 (≈ 0.0627 µM) | 0.2 (≈ 0.251 µM) | 32 (≈ 40.1 µM) | > 100 | 0.02 (≈ 0.0251 µM) | 0.02 (≈ 0.0251 µM) | ≤ 4 | 50 (≈ 62.7 µM) | 0.05 (≈ 0.0627 µM) | 0.39 (≈ 0.489 µM) | 50 (≈ 62.7 µM) | ≤ 4 | 0.05 (≈ 0.0627 µM) | > 100 | 0.1 (≈ 0.125 µM) | MIC [18]: 0.02 µg/mL (≈ 0.0251 µM); MIC [19]: 0.1 µg/mL (≈ 0.125 µM); MIC [20]: > 100 µg/mL; MIC [21]: 0.1 µg/mL (≈ 0.125 µM); MIC [23]: 0.03 µg/mL (≈ 0.0376 µM); MIC [22]: 25 µg/mL (≈ 31.3 µM)
